Assays:
CYP4A11 = molecular target: T1, CYP4A11 (Homo sapiens, UniProt Q02928); assay: Two-step luminescent P450 screen of luciferin derivatives; assay type: biochemical; conditions: result in words
T1 construct: purchased Discovery Labware (BD/Gentest); host or cells: insect cell expression system (membrane fractions)
T1 sequence (Q02928 5-519): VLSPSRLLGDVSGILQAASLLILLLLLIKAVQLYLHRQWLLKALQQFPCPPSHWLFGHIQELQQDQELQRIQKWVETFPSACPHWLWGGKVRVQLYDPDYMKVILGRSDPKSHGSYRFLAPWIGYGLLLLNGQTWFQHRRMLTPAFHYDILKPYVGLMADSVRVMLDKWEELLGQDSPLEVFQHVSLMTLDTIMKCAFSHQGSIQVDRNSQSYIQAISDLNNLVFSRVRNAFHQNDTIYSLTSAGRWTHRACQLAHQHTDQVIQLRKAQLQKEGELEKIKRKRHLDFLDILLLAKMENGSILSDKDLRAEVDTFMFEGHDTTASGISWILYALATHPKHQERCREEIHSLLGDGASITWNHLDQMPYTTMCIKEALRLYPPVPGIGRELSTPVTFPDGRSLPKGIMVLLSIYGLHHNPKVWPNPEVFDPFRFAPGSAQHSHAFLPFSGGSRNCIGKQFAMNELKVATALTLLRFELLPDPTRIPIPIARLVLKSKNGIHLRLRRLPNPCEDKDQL
Experimental: (§1) P450s are Supersomes™ purchased from Discovery Labware (BD/Gentest). […] HLM is human liver microsomes.
(§2) 1X substrate concentration: 50 µM.

CYP4F12 = molecular target: T2, CYP4F12 (Homo sapiens, UniProt Q9HCS2); assay: as above; assay type: biochemical; conditions: result in words
T2 construct: purchased Discovery Labware (BD/Gentest); host or cells: insect cell expression system (membrane fractions)
T2 sequence (Q9HCS2 1-524): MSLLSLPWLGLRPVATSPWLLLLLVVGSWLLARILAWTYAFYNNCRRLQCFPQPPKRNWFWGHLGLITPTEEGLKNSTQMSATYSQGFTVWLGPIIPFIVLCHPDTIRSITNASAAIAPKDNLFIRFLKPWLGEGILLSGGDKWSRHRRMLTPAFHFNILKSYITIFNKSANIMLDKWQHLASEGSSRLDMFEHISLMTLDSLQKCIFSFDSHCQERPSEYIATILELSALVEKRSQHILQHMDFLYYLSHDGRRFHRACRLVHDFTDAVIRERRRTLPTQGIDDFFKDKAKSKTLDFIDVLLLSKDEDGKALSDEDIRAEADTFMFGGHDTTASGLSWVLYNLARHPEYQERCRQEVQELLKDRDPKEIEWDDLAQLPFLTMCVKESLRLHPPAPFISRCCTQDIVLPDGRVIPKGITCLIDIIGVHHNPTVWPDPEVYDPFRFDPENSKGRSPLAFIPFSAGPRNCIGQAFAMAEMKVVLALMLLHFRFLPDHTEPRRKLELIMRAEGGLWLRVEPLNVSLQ
Experimental: as §1, §2

CYP3A4 = CYP3A4 (Homo sapiens, UniProt P08684); assay: as above; conditions: result in words
[1] = system: CYP3A subfamily, CYP3A4, CYP3A5 and CYP3A7; assay: Two-step luminescent P450 screen of luciferin derivatives, selectivity for the CYP3A subfamily; assay type: biochemical, human; conditions: result in words
Experimental: as §1, §2

luciferase = assay: No-enzyme control: activity of luciferase towards the luciferin derivative (background luminescence); conditions: on a BMG luminometer; minus P450
Experimental: The reactions (Table 1) were assembled by first adding the water and 1 M BisTris solutions in individual 0.5 ml microfuge tubes, then adding the other components except for the GST #3 solution. Finally, the GST #3 (Figure 12) solution was added to the reactions, the resulting solution was mixed, and the time of addition noted. […]
The GST #3 addition was performed last and the solutions were mixed immediately after addition of GST #3. […] After mixing, the light produced by the solution was measured using a Turner TD 20/20 luminometer.
After assembly, the enzyme stock solutions were diluted 1:10 into 10 mM HEPES, pH 7.5 and the following additions were made to the reactions.
A 5 µl sample of the luciferol DMF solution was added to each of the reactions above and a timer was started upon the addition of the first luciferol/DMF solution to reaction 1. All reactions were kept at room temperature.
After incubating 5 minutes at room temperature, the light produced by these samples was measured using a Turner TD 20 luminometer.
To initiate the conversions, 5 µl of luciferol solution was added to reactions […], 6-9, and 11-15, and 10 µl of luciferol was added to reactions 5 and 10 and the tubes mixed after that addition. Immediately after luciferol addition to reaction 1, a timer was started and the time of luciferol addition to the other tubes noted. After mixing, reaction 11-15 were placed at 37°C.
After incubating 10 minutes at room temperature, the light produced by these samples was read using a Turner TD 20 luminometer (Table 18).
To initiate Step 1, 45 µl of enzyme and buffer were added to each well.
Solution A and Solution B are components of the NADPH Regeneration System (V9510, Promega Corp., Madison WI). […] Solution B contains 40 units/ml glucose-6-phosphate dehydrogenase in 5 mM citrate pH 5.5.

CYP1A2 = molecular target: T3, CYP1A2 (Homo sapiens, UniProt P05177); assay: Two-step luminescent P450 screen of luciferin derivatives; assay type: biochemical; conditions: 50 µM substrate, 1 pmole P450; result in words
T3 construct: purchased Discovery Labware (BD/Gentest); host or cells: insect cell expression system (membrane fractions)
T3 sequence (P05177 2-516 limits assumed): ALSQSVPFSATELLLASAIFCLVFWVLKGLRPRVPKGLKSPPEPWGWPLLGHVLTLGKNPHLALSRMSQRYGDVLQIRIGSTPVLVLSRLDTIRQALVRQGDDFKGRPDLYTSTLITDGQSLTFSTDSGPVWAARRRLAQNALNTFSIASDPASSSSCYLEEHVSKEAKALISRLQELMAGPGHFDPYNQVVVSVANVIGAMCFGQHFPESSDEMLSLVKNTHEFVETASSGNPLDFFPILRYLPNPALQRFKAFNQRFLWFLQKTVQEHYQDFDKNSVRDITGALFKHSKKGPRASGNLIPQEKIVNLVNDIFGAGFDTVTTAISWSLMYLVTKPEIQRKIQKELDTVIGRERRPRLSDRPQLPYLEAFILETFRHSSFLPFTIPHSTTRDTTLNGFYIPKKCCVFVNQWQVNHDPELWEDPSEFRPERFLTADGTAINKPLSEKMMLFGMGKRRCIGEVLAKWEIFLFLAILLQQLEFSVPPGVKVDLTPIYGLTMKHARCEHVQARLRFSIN
Experimental: as §1, §2

CYP1A1 = molecular target: T4, CYP1A1 (Homo sapiens, UniProt P04798); assay: as above; conditions: 50 µM substrate, 1 pmole P450, 37°C 30 minutes; result in words
T4 sequence (P04798 1-512): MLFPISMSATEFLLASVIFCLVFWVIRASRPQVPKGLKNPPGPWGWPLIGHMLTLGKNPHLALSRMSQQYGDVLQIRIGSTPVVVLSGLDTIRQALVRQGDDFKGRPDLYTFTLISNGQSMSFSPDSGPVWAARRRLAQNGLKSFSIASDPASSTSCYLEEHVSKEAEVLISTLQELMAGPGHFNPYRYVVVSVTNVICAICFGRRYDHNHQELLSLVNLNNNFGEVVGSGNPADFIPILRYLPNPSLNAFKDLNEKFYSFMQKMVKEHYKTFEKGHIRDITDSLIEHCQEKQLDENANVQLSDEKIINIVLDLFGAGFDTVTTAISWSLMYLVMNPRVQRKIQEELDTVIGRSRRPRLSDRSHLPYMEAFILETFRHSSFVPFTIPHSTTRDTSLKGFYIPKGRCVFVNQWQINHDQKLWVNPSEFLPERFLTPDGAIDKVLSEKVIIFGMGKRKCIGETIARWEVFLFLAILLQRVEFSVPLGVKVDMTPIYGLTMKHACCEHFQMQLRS

Chain of CYP3A4 (P08684 2-503 limits assumed): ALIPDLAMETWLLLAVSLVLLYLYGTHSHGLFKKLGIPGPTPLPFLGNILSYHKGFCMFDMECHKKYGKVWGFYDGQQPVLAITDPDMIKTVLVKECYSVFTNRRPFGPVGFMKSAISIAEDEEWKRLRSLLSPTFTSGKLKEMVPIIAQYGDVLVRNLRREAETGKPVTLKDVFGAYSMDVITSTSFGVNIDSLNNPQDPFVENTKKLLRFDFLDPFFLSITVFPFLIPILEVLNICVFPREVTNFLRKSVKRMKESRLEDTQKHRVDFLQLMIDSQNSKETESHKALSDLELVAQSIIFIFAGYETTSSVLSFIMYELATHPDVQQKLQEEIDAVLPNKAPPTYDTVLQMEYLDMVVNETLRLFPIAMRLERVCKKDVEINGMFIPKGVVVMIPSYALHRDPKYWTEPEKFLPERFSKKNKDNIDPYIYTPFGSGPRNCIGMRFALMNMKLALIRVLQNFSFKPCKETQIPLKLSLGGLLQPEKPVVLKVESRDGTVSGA

For “2-(7-methyoxy-quinoxalin-2-yl)-4-5-dihydro-thiazole-4-carboxylic acid [quinoxalylluciferin 6-methyl ether]”, the “P450 activity / selectivity with the derivative as substrate” value (“P450 activity / selectivity” below) (CYP4A11) was “substrate”.
Cc1cc(C)c(COc2ccc3nc(C4=N[C@@H](C(=O)O)CS4)sc3c2)c(C)c1 [6'(2,4,6-trimethylbenzyloxy)-luciferin, Luciferin 6-(2,4,6-trimethylbenzyl) ether] was tested, and the “P450 activity / cross reactivity with the derivative as substrate” value (shortened to “P450 activity / cross reactivity”) (CYP4F12) was “did not show substantial cross reactivity”, the “P450 activity / selectivity” value (CYP3A4) was “substantial activity” and the “selectivity for three members of the CYP3A subfamily” value (“selectivity for three members” below) [1] was “selective”.
For O=C(O)[C@H]1CSC(c2nc3ccc(OCc4cc(C(F)(F)F)ccc4C(F)(F)F)cc3s2)=N1 [6'(2,5-ditrifluoromethylbenzyloxy)-luciferin], the “selectivity for three members” value [1] was “selective”.
For O=C(O)[C@H]1CSC(c2nc3ccc(OCc4ccccc4C(F)(F)F)cc3s2)=N1 [6'(o-trifluoromethylbenzyloxy)-luciferin, Luciferin 2-trifluoromethylbenzyl ether], the “P450 activity / cross reactivity” value (CYP4F12) was “did not show substantial cross reactivity”, the “P450 activity / selectivity” value (CYP3A4) was “substantial activity” and the “selectivity for three members” value [1] was “selective”.
O=C(O)[C@H]1CSC(c2nc3ccc(OCc4c(F)c(F)c(F)c(F)c4F)cc3s2)=N1 [6'-(2,3,4,5,6-pentafluorobenzyloxy)-luciferin] was tested, and the “P450 activity / cross reactivity” value (CYP4F12) was “did not show substantial cross reactivity”, the background luminescence (luciferase) was “about 900 RLU” and the “P450 activity / selectivity” value (CYP3A4) was “substantial activity”. For the same compound, the “selectivity for three members” value [1] was “selective”.
O=C(O)[C@H]1CSC(c2ccc3cc(OCOCc4ccccc4)ccc3n2)=N1 [6'benzyloxymethoxy-quinolylluciferin, quinolinyl luciferin benzyloxymethyl ether] was tested, and the “selectivity for three members” value [1] was “selective”.
O=C(O)[C@H]1CSC(c2nc3ccc(OCc4c(F)c(F)c(F)c(CN5CCN(c6ccccc6)CC5)c4F)cc3s2)=N1 [LucPPXE4F, 6'-(2,3,4,6-tetrafluoro-5-((4-phenylpiperizin-1-yl)methyl)benzyloxy)-luciferin] was tested, and the “P450 activity / cross reactivity” value (CYP4F12) was “did not show substantial cross reactivity”, the “P450 activity / selectivity” value (CYP3A4) was “substantial activity” and the “selectivity for three members” value [1] was “selective”.
For O=C(O)[C@H]1CSC(c2nc3ccc(OCc4cccc(CN5CCN(c6ccccc6)CC5)c4)cc3s2)=N1 [LucPPXE, Luciferin 3-(4-phenylpiperazin-1-yl)methylbenzyl ether], the “P450 activity / cross reactivity” value (CYP4F12; listed as 6'(3-((4-phenylpipenzin-1-yl))methyl)benzyloxy) luciferin) was “did not cross react”, the background luminescence (luciferase) was “about 2200 RLU” and the “P450 activity / selectivity” value (CYP3A4) was “substantial activity”. The “competition at the substrate binding sites on CYP3A4” value (CYP3A4) was “competitive at 2 of the 3 substrate binding sites”, the “sensitivity of the reaction with 3A4 to DMSO” value (CYP3A4) was “insensitive to DMSO at commonly used concentrations” and the “selectivity for three members” value [1] was “selective”.
For COc1ccc2cc(C3=N[C@@H](C(=O)O)CS3)ccc2c1 [Naphthylluciferin 6-methyl ether, naphthyl luciferin methyl ether], the “P450 activity / selectivity” value (CYP4A11) was “substrate”.
For COc1ccc2nc(C3=N[C@@H](C(=O)O)CS3)ccc2c1 [Quinolylluciferin 6-methyl ether, 2-(6-methoxyquinolin-2-yl)-4,5-dihydrothiazole-4-carboxylate], the “P450 activity / selectivity” value (CYP1A2) was “preferred substrate”.
COc1ccc2nc(C3=N[C@@H](C(=O)NN)CS3)sc2c1 [luciferin-6-methylether hydrazide, Hydrazide of luciferin methyl ether] was tested, and the “P450 activity / selectivity” value (CYP1A2) was “good selectivity”.
Bis-luciferin-methylenediether was tested, and the “P450 activity / selectivity” value (CYP1A1) was “selective”.
In the case of N-benzyloxycarbonyl aminoluciferin, the “P450 activity / selectivity” value (CYP1A1) was “strong selectivity”.
For “N-isobutoxycarbonyl-aminoluciferin [N-isobutoxycarbonyl aminolucifern]”, the “P450 activity / selectivity” value (CYP1A1) was “strong selectivity”.
